Laboratory results as given in patent publication US20250136581A1, “SUBSTITUTED TRIAZOLE DERIVATIVE, PREPARATION METHOD THEREFOR, PHARMACEUTICAL COMPOSITION THEREOF, AND USE THEREOF” (SHANGHAI SIMR BIOTECHNOLOGY CO., LTD., priority 2021, published 2025).

Tests used:
human α2β3γ2 receptors = human α2β3γ2 receptors (Homo sapiens (Human), UniProt P18507+P47869); assay: 3H-flunitrazepam competition binding, human α2β3γ2 GABAA receptor; conditions: HEK293 cell membranes, 1 nM 3H-flunitrazepam; read-out: Ki α2
Outline: (§1)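 HEK293 membranes stably expressing each human receptor subtype ([…]) competed against 1 nM 3H-flunitrazepam in Tris buffer, 1 h at room temperature; flumazenil defined the low-signal control. Eight-point 4-fold test-compound dilutions; GF/C filtration and scintillation counting gave IC50 by curve fitting, converted to Ki.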

[1] = Rat pharmacokinetic experiment; format: in vivo; conditions: rat, po, 3 mg/kg
Experimental: The maximum plasma concentration (Cmax) in the rat pharmacokinetic experiment was used to evaluate the absorption of the compounds in rat in vivo. The experimental compound was dissolved and then orally administered by gavage (p.o.) to male SD rats. The rats were fasted overnight before drug administration, and blood was collected via venipuncture at 0.25, 0.5, 1, 2, 4, and 7 hours post dose. Approximately 100 μL blood was collected for each sample; at the same time, the whole brain was taken and homogenized with 3 times the amount of PBS for analysis. The […] method was used to determine drug concentrations in plasma and brain tissue, and the proportion of compounds entering the brain (B/P) was calculated based on the AUC of the compound. Pharmacokinetic parameters were calculated using Phoenix WinNonlin 7.0. The administration vehicle was 5% CMC-Na aqueous solution.

human α1β3γ2 receptors = human α1β3γ2 receptors (Homo sapiens (Human), UniProt P14867+P18507); assay: 3H-flunitrazepam competition binding, human α1β3γ2 GABAA receptor; conditions: HEK293 cell membranes, 1 nM 3H-flunitrazepam; read-out: Ki α1
Outline: as §1

human MDR1 P-gp = assay: MDCKII-MDR1 permeability; format: in vitro ADME, canine; conditions: dog
Experimental: Brain permeability of compounds was assessed by measuring compound efflux in Madin-Darby canine kidney-II (MDCKII) cells transfected with the human MDR1 gene (Drug metabolism and disposition, 2008, 36(2), 268-275).
The active transport mechanism was mediated by uptake and efflux transporters expressed on MDCKII-MDR1 cells, primarily by overexpressed human MDR1 P-gp.
MDCKII-MDR1 cells were seeded on the polycarbonate microporous membrane of Transwell™ at a density of (0.85 to 5.0)×10^6/cm^2, and used for experiments when the cells reached complete confluence (3 to 5 d). […] At the beginning and end of the experiment, samples were collected from the transport solution side. After incubation for a certain period of time (1.5 hours), samples were also collected from the buffer side, and the concentration was determined by HPLC-MS/MS or scintillation counting.

SMILES: Cc1nnn(-c2ccc(C(F)F)cc2)c1COc1ccc(N2CC(=O)NC(C)C2)nn1 (stereo not drawn) [Example 6, 4-(6-((1-(4-(Difluoromethyl)phenyl)-4-methyl-1H-1,2,3-triazol-5-yl)methoxy)pyridazin-3-yl)-6-methylpiperazin-2-one]
- Ki (human α2β3γ2 receptors): 15.9 nM
- Kp ([1]; male, SD, brain / plasma, read-out: B/P (proportion of compounds entering the brain)): 0.0015
- Cmax ([1]; plasma, male SD rats): 1510 ng/mL
- Ki (human α1β3γ2 receptors): 59.8 nM
- efflux ratio at 1.5 h (human MDR1 P-gp; MDCK-MDR1, pH 7.4, Papp (B-A)/Papp (A-B), read-out: Efflux ratio (ER)): 7.52
- Papp A→B at 1.5 h (human MDR1 P-gp; MDCK-MDR1, pH 7.4, 37° C., 1.5 hours): 4.16 ×10⁻⁶ cm/s
